Reference: the supplement of paper PMC11208160

experiment: recombinant barcode read abundance after kanamycin selection (control-corrected) (log10(CPM+1)); higher = more efficient recombination; sequences stand for … in AGTGCAGAGAAAATCGGCCAGTTTTCTCTGCCTGCAGTCCGCATGCCGT…AGATTTATGCAGCGGACTGCCTTTCTCCCAAAGTGATAAACCGGACAGTATCATGGACCGGTTTTCCCGGTAATCCGTATTTGCAAGGTTGGTTTCACT; site = the 11-nt target
Method: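 Pooled E. coli target-specificity screen for the IS621 bridge recombinase. Each library plasmid pairs an 11-nt target (CT core) with a bridge RNA whose target-binding loop (9-nt LTG + 4-nt RTG) is reprogrammed; the rest of the 177-nt WT IS621 bridge RNA scaffold is fixed. The plasmid is co-electroporated with a WT donor plasmid; recombinase is induced with 0.1 mM IPTG and recombinants are selected on kanamycin. Recombinant barcodes are sequenced, converted to CPM, averaged over two biological replicates and corrected by the unselected control CPM. Molecule = full bridge RNA written as DNA: LTG = specificity nt 1-9, RTG = reverse complement of specificity nt 8-11, in the WT scaffold.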
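Note: IS621 recombinase and bridge RNA in Escherichia coli cells.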

Q: Which “recombinant barcode read abundance (log10)” value does the source give for “ACGCGTTCTTGGGTTCTAACCTGTTGCAT (site CTAGACCCTCC)” here?
A: 0.271

Q: For “ACGGATCCTTGGGTTCTAACCTGTTGCAT (site ACGGATCCTAT)”, which “recombinant barcode read abundance (log10)” value is on record?
A: 2.51

Q: With “ACGGATCCTTGGGTTCTAACCTGTTGCAT (site GTCCTATCTTG)” as the sequence, how does the “recombinant barcode read abundance (log10)” value read?
A: 0.0315

Q: With “ACGGCCTCTTGGGTTCTAACCTGTTGCTT (site ACGGCATCTAG)” as the sequence, how does the “recombinant barcode read abundance (log10)” value read?
A: 0.276

Q: Which “recombinant barcode read abundance (log10)” value does the source give for “ACGGCCTCTTGGGTTCTAACCTGTTGCTT (site ACGGCCTCTAA)” here?
A: 2.63

Q: For “ACGGCGCCTTGGGTTCTAACCTGTTGCCT (site AAGGCGCCTAG)”, which “recombinant barcode read abundance (log10)” value is on record?
A: 0.0538

Q: Which “recombinant barcode read abundance (log10)” value does the source give for “ACGGCGCCTTGGGTTCTAACCTGTTGCCT (site ACGGCGCCTAG)” here?
A: 1.12

Q: With “ACGGCGCCTTGGGTTCTAACCTGTTGCCT (site AGGGCGCCTAG)” as the sequence, how does the “recombinant barcode read abundance (log10)” value read?
A: 0.101

Q: For “ACGGCGCCTTGGGTTCTAACCTGTTGCCT (site ATGGCGCCTAG)”, which “recombinant barcode read abundance (log10)” value is on record?
A: 0.182

Q: For “ACGGGCTCTTGGGTTCTAACCTGTTGCTC (site ACGGGCTCTGA)”, which “recombinant barcode read abundance (log10)” value is on record?
A: 1.53

Q: For “ACGGGCTCTTGGGTTCTAACCTGTTGCTC (site CGACTTACTAT)”, which “recombinant barcode read abundance (log10)” value is on record?
A: 0.164

Q: For “ACGGGGTCTTGGGTTCTAACCTGTTGCCT (site ACGGGGTCTAG)”, which “recombinant barcode read abundance (log10)” value is on record?
A: 2.64

Q: Which “recombinant barcode read abundance (log10)” value does the source give for “ACGGGGTCTTGGGTTCTAACCTGTTGCCT (site CCGGGGTCTAG)” here?
A: 0.637

Q: With “ACGGGGTCTTGGGTTCTAACCTGTTGCCT (site GCGGGGTCTAG)” as the sequence, how does the “recombinant barcode read abundance (log10)” value read?
A: 0.123

Q: Which “recombinant barcode read abundance (log10)” value does the source give for “ACGGGGTCTTGGGTTCTAACCTGTTGCCT (site TCGGGGTCTAG)” here?
A: 0.416

Q: With “ACGGGTACTTGGGTTCTAACCTGTTGCCT (site ACGGGTACTAG)” as the sequence, how does the “recombinant barcode read abundance (log10)” value read?
A: 1.51

Q: Which “recombinant barcode read abundance (log10)” value does the source give for “ACGGGTACTTGGGTTCTAACCTGTTGCCT (site ACTGGTACTAG)” here?
A: 0.165

Q: For “ACGTAACCTTGGGTTCTAACCTGTTGCCT (site ACGTAACCTAG)”, which “recombinant barcode read abundance (log10)” value is on record?
A: 0.0547

Q: With “ACGTAACCTTGGGTTCTAACCTGTTGCCT (site GTAACTACTGA)” as the sequence, how does the “recombinant barcode read abundance (log10)” value read?
A: 0.083

Q: Which “recombinant barcode read abundance (log10)” value does the source give for “ACGTATGCTTGGGTTCTAACCTGTTGCAT (site ACGTATGCTAT)” here?
A: 0.556

Q: Which “recombinant barcode read abundance (log10)” value does the source give for “ACGTATGCTTGGGTTCTAACCTGTTGCAT (site TAAATCACTCG)” here?
A: 0.0674

Q: With “ACGTCTCCTTGGGTTCTAACCTGTTGCTG (site ACGACTCCTCA)” as the sequence, how does the “recombinant barcode read abundance (log10)” value read?
A: 0

Q: Which “recombinant barcode read abundance (log10)” value does the source give for “ACGTCTCCTTGGGTTCTAACCTGTTGCTG (site ACGCCTCCTCA)” here?
A: 0.175

Q: With “ACGTCTCCTTGGGTTCTAACCTGTTGCTG (site ACGGCTCCTCA)” as the sequence, how does the “recombinant barcode read abundance (log10)” value read?
A: 0.0879

Q: For “ACGTCTCCTTGGGTTCTAACCTGTTGCTG (site ACGTCTCCTCA)”, which “recombinant barcode read abundance (log10)” value is on record?
A: 0.162

Q: For “ACGTGCTCTTGGGTTCTAACCTGTTGCCT (site AAGTGCTCTAG)”, which “recombinant barcode read abundance (log10)” value is on record?
A: 0.503

Q: With “ACGTGCTCTTGGGTTCTAACCTGTTGCCT (site ACGTGCTCTAG)” as the sequence, how does the “recombinant barcode read abundance (log10)” value read?
A: 1.32

Q: For “ACGTGCTCTTGGGTTCTAACCTGTTGCCT (site AGGTGCTCTAG)”, which “recombinant barcode read abundance (log10)” value is on record?
A: 0.119

Q: With “ACGTGCTCTTGGGTTCTAACCTGTTGCCT (site ATGTGCTCTAG)” as the sequence, how does the “recombinant barcode read abundance (log10)” value read?
A: 0.246

Q: Which “recombinant barcode read abundance (log10)” value does the source give for “ACGTGGCCTTGGGTTCTAACCTGTTGCCA (site ACGTGGCCTTG)” here?
A: 0.0442

Q: With “ACGTGGCCTTGGGTTCTAACCTGTTGCCA (site ACGTGGTCTTA)” as the sequence, how does the “recombinant barcode read abundance (log10)” value read?
A: 0.275

Q: For “ACGTGGCCTTGGGTTCTAACCTGTTGCTG (site ACGTGGCCTCA)”, which “recombinant barcode read abundance (log10)” value is on record?
A: 1.05

Q: With “ACGTGGCCTTGGGTTCTAACCTGTTGCTG (site ACTTGGCCTCA)” as the sequence, how does the “recombinant barcode read abundance (log10)” value read?
A: 0.618

Q: For “ACGTGGTCTTGGGTTCTAACCTGTTGCTA (site ACGTGGCCTTG)”, which “recombinant barcode read abundance (log10)” value is on record?
A: 0.534

Q: With “ACGTGGTCTTGGGTTCTAACCTGTTGCTA (site ACGTGGTCTTA)” as the sequence, how does the “recombinant barcode read abundance (log10)” value read?
A: 0.582

Q: Which “recombinant barcode read abundance (log10)” value does the source give for “ACTAACACTTGGGTTCTAACCTGTTGCCT (site ACTAACACTAG)” here?
A: 1.23

Q: Which “recombinant barcode read abundance (log10)” value does the source give for “ACTAACACTTGGGTTCTAACCTGTTGCCT (site CCTAACACTAG)” here?
A: 0.0857

Q: With “ACTAACACTTGGGTTCTAACCTGTTGCCT (site GCTAACACTAG)” as the sequence, how does the “recombinant barcode read abundance (log10)” value read?
A: 0.0913

Q: With “ACTAACACTTGGGTTCTAACCTGTTGCCT (site TCTAACACTAG)” as the sequence, how does the “recombinant barcode read abundance (log10)” value read?
A: 0.546

Q: For “ACTAACCCTTGGGTTCTAACCTGTTGCCT (site AATAACCCTAG)”, which “recombinant barcode read abundance (log10)” value is on record?
A: 0.0415

Q: With “ACTAACCCTTGGGTTCTAACCTGTTGCCT (site ACTAACCCTAG)” as the sequence, how does the “recombinant barcode read abundance (log10)” value read?
A: 1.47

Q: With “ACTAACCCTTGGGTTCTAACCTGTTGCCT (site AGTAACCCTAG)” as the sequence, how does the “recombinant barcode read abundance (log10)” value read?
A: 0.08

Q: With “ACTAACCCTTGGGTTCTAACCTGTTGCCT (site ATTAACCCTAG)” as the sequence, how does the “recombinant barcode read abundance (log10)” value read?
A: 0.074

Q: Which “recombinant barcode read abundance (log10)” value does the source give for “ACTAAGCCTTGGGTTCTAACCTGTTGCGG (site ACTAAGCCTCC)” here?
A: 1.93

Q: With “ACTAAGCCTTGGGTTCTAACCTGTTGCGG (site AGTAAGCCTCT)” as the sequence, how does the “recombinant barcode read abundance (log10)” value read?
A: 0.151

Q: For “ACTACCTCTTGGGTTCTAACCTGTTGCCT (site AATACCTCTAG)”, which “recombinant barcode read abundance (log10)” value is on record?
A: 0.0169

Q: With “ACTACCTCTTGGGTTCTAACCTGTTGCCT (site ACTACCTCTAG)” as the sequence, how does the “recombinant barcode read abundance (log10)” value read?
A: 1.35

Q: With “ACTACCTCTTGGGTTCTAACCTGTTGCCT (site AGTACCTCTAG)” as the sequence, how does the “recombinant barcode read abundance (log10)” value read?
A: 0.0737

Q: With “ACTACCTCTTGGGTTCTAACCTGTTGCCT (site ATTACCTCTAG)” as the sequence, how does the “recombinant barcode read abundance (log10)” value read?
A: 0.0805

Q: Which “recombinant barcode read abundance (log10)” value does the source give for “ACTACTACTTGGGTTCTAACCTGTTGCCT (site AATACTACTAG)” here?
A: 0.227

Q: For “ACTACTACTTGGGTTCTAACCTGTTGCCT (site ACTACTACTAG)”, which “recombinant barcode read abundance (log10)” value is on record?
A: 0.172

Q: Which “recombinant barcode read abundance (log10)” value does the source give for “ACTACTACTTGGGTTCTAACCTGTTGCCT (site AGTACTACTAG)” here?
A: 0.492

Q: For “ACTACTACTTGGGTTCTAACCTGTTGCCT (site ATTACTACTAG)”, which “recombinant barcode read abundance (log10)” value is on record?
A: 0.111

Q: Which “recombinant barcode read abundance (log10)” value does the source give for “ACTAGACCTTGGGTTCTAACCTGTTGCCT (site ACTAGACCTAG)” here?
A: 0.5

Q: With “ACTAGACCTTGGGTTCTAACCTGTTGCCT (site ACTCGACCTAG)” as the sequence, how does the “recombinant barcode read abundance (log10)” value read?
A: 0.134

Q: Which “recombinant barcode read abundance (log10)” value does the source give for “ACTAGGACTTGGGTTCTAACCTGTTGCGT (site ACTAGGACTAC)” here?
A: 2.91

Q: Which “recombinant barcode read abundance (log10)” value does the source give for “ACTAGGACTTGGGTTCTAACCTGTTGCGT (site ACTAGGACTCC)” here?
A: 1.22

Q: Which “recombinant barcode read abundance (log10)” value does the source give for “ACTAGGACTTGGGTTCTAACCTGTTGCGT (site ACTAGGACTGC)” here?
A: 0.248

Q: For “ACTAGGACTTGGGTTCTAACCTGTTGCGT (site ACTAGGACTTC)”, which “recombinant barcode read abundance (log10)” value is on record?
A: 0.26

Q: With “ACTAGGCCTTGGGTTCTAACCTGTTGCGG (site ACTAGGCCTCC)” as the sequence, how does the “recombinant barcode read abundance (log10)” value read?
A: 2.2

Q: With “ACTAGGCCTTGGGTTCTAACCTGTTGCGG (site ACTATCCCTCC)” as the sequence, how does the “recombinant barcode read abundance (log10)” value read?
A: 0.0234

Q: For “ACTAGGGCTTGGGTTCTAACCTGTTGCGG (site AATAGGGCTCC)”, which “recombinant barcode read abundance (log10)” value is on record?
A: 0.729

Q: For “ACTAGGGCTTGGGTTCTAACCTGTTGCGG (site ACTAGGGCTCC)”, which “recombinant barcode read abundance (log10)” value is on record?
A: 3.25

Q: Which “recombinant barcode read abundance (log10)” value does the source give for “ACTAGTCCTTGGGTTCTAACCTGTTGCCA (site ACTACTCCTTC)” here?
A: 0.0602

Q: Which “recombinant barcode read abundance (log10)” value does the source give for “ACTAGTCCTTGGGTTCTAACCTGTTGCCA (site ACTAGTCCTTG)” here?
A: 0.326

Q: For “ACTAGTCCTTGGGTTCTAACCTGTTGCTT (site ACTAGTCCTAA)”, which “recombinant barcode read abundance (log10)” value is on record?
A: 0.294

Q: For “ACTAGTCCTTGGGTTCTAACCTGTTGCTT (site ACTAGTCCTAC)”, which “recombinant barcode read abundance (log10)” value is on record?
A: 0.143

Q: For “ACTAGTCCTTGGGTTCTAACCTGTTGCTT (site ACTAGTCCTAG)”, which “recombinant barcode read abundance (log10)” value is on record?
A: 0.189

Q: For “ACTAGTCCTTGGGTTCTAACCTGTTGCTT (site ACTAGTCCTAT)”, which “recombinant barcode read abundance (log10)” value is on record?
A: 0.316

Q: With “ACTATCCCTTGGGTTCTAACCTGTTGCGG (site ACTAGGCCTCC)” as the sequence, how does the “recombinant barcode read abundance (log10)” value read?
A: 0.283

Q: Which “recombinant barcode read abundance (log10)” value does the source give for “ACTATCCCTTGGGTTCTAACCTGTTGCGG (site ACTATCCCTCC)” here?
A: 1.16

Q: With “ACTCGCTCTTGGGTTCTAACCTGTTGCAC (site ACTCGCTCTGT)” as the sequence, how does the “recombinant barcode read abundance (log10)” value read?
A: 1.5

Q: For “ACTCGCTCTTGGGTTCTAACCTGTTGCAC (site GGGACTACTCG)”, which “recombinant barcode read abundance (log10)” value is on record?
A: 0.0345
